Assay results published in patent publication US11667649B2, “Heteroaromatic macrocyclic ether chemotherapeutic agents” (Nuvalent, Inc., priority 2020, dated 2023).

Columns and labels:
ALK-wt kinase domain = target: T1, ALK-wt kinase domain (Homo sapiens, UniProt Q9UM73); assay: Biochemical kinase assay, ALK-wt; conditions: 2 mM ATP substrate solution, read-out: Ki^app ALK-wt
T1 construct: TRKA-wt (1 nM, BPS Bio, 40280) kinase domains in buffer; purchased Carna 08-518
Protocol: (§1) First, 250 nL of compound dissolved in DMSO (100-fold of the desired concentration) was dispensed into a 384-well plate. A 12.5 μL substrate solution containing ATP (2 mM) and fluorogenic phosphorylation substrate AQT0101 (26 μM for ALK and ROS1, AssayQuant) or AQT0104 (26 μM for TRKA, AssayQuant) in buffer (50 mM HEPES pH 7.5, 0.01% Brij-35, 0.5 mM EGTA, 10 mM MgCl2) was added and mixed thoroughly. Then, a 12.5 μL kinase solution containing ALK-wt (1.5 nM, Carna, 08-518), ALK ALK L1196M/G1202R (3 nM, SignalChem, A19-12NG), ROS1-wt (0.6 nM, Carna, 08-163), ROS1-G2032R (0.5 nM, SignalChem, R14-12BG), or TRKA-wt (1 nM, BPS Bio, 40280) kinase domains in buffer ([…] HEPES pH 7.5, 0.01% Brij-35, 2% glycerol, 0.4 mg/mL BSA, 0.5 mM EGTA, and 10 mM MgCl2) was added and mixed thoroughly. The plate was sealed and read by SpectraMax Paradigm at λ=485 nm every 2 minutes for 120 minutes at 30° C. Initial rates of reaction (v) were calculated from the change in fluorescence intensity over time during the initial, linear portion of the reaction. Finally, apparent inhibitory constants (Ki^app) were determined from regression of v and I (inhibitor concentration) to Morrison Equation (E=enzyme concentration): […]

[1] = target: T2, ALK L1196M/G1202R kinase domain (Homo sapiens, UniProt Q9UM73, G1202R/L1196M); assay: Biochemical kinase assay, ALK L1196M/G1202R; conditions: 2 mM ATP substrate solution, read-out: Ki^app ALK-L1196M-G1202R
T2 construct: TRKA-wt (1 nM, BPS Bio, 40280) kinase domains in buffer; purchased SignalChem A19-12NG
Protocol: as §1

ROS1-wt kinase domain = target: T3, ROS1-wt kinase domain (Homo sapiens, UniProt P08922); assay: Biochemical kinase assay, ROS1-wt; conditions: 2 mM ATP substrate solution, read-out: Ki^app ROS1-wt
T3 construct: TRKA-wt (1 nM, BPS Bio, 40280) kinase domains in buffer; purchased Carna 08-163
Protocol: as §1

[2] = target: T4, ROS1-G2032R kinase domain (Homo sapiens, UniProt P08922, G2032R); assay: Biochemical kinase assay, ROS1-G2032R; conditions: 2 mM ATP substrate solution, read-out: Ki^app ROS1-G2032R
T4 construct: TRKA-wt (1 nM, BPS Bio, 40280) kinase domains in buffer; purchased SignalChem R14-12BG
Protocol: as §1

TRKA-wt kinase domain = target: T5, TRKA-wt kinase domain (Homo sapiens, UniProt P04629); assay: Biochemical kinase assay, TRKA-wt; conditions: 2 mM ATP substrate solution, read-out: Ki^app TRKA-wt
T5 construct: TRKA-wt (1 nM, BPS Bio, 40280) kinase domains in buffer; purchased BPS Bio 40280
Protocol: as §1

Ki (ALK-wt kinase domain) [nM]	Ki [1] [nM]	Ki (ROS1-wt kinase domain) [nM]	Ki [2] [nM]	Ki (TRKA-wt kinase domain) [nM]	SMILES
< 50	< 50	< 50	< 50	50 to 500	CCc1nn(C)c2c1-c1cnc(N)c(c1)OCc1cc(F)ccc1-n1nc(C)cc1C2 [Compound 55]
< 50	< 50	< 50	< 50	> 500	C[C@H]1Oc2cc(cnc2N)-c2c(C#N)ncn2Cc2ccnn2-c2ccc(F)cc21 [Compound 58]
< 50	> 500	< 50	50 to 500	50 to 500	CC1Oc2cc(cnc2N)-c2c(nn(C)c2C#N)Cc2cnccc2-c2ccc(F)cc21 (stereo not shown) [Compound 59]
< 50	50 to 500	< 50	50 to 500	> 500	CC1Oc2cc(cnc2N)-c2c(C#N)cnn2Cc2cnn(C)c2-c2ccc(F)cc21 (stereo not shown) [Compound 60]
50 to 500	> 500	50 to 500	> 500	> 500	Cc1cc2n(n1)-c1ccc(F)cc1[C@@H](C)Oc1cc(cnc1N)-c1c(C#N)ncn1C2 [Compound 61]
< 50	< 50	< 50	50 to 500	> 500	C[C@H]1Oc2cc(cnc2N)-c2c(C#N)cnn2Cc2ccnn2-c2ccc(F)cc21 [Compound 62]
< 50	< 50	< 50	< 50	> 500	C[C@H]1Oc2cc(cnc2N)-c2c(C#N)ncn2Cc2cc(F)cnc2-c2ccc(F)cc21 [Compound 63]
< 50	< 50	< 50	< 50	> 500	C[C@H]1Oc2cc(cnc2N)-c2c(C#N)ncn2Cc2scnc2-c2ccc(F)cc21 [Compound 64]
< 50	< 50	< 50	< 50	> 500	Cc1nc2c(s1)Cn1cnc(C#N)c1-c1cnc(N)c(c1)O[C@H](C)c1cc(F)ccc1-2 [Compound 65]
< 50	< 50	< 50	< 50	50 to 500	Cc1nc2c(s1)Cn1ncc(C#N)c1-c1cnc(N)c(c1)O[C@H](C)c1cc(F)ccc1-2 [Compound 67]
< 50	< 50	< 50	< 50	50 to 500	Cc1nc2c(s1)Cn1ncc(C(F)F)c1-c1cnc(N)c(c1)O[C@H](C)c1cc(F)ccc1-2 [Compound 68]
< 50	< 50	< 50	< 50	50 to 500	CCn1ncc2c1-c1cnc(N)c(c1)OCc1cc(F)ccc1-n1nc(C)cc1C2 [Compound 69]
< 50	< 50	< 50	< 50	50 to 500	CCn1nnc2c1-c1cnc(N)c(c1)O[C@H](C)c1cc(F)ccc1-c1ncc(F)cc1C2 [Compound 70]
< 50	< 50	< 50	< 50	< 50	CCn1ncc2c1-c1cnc(N)c(c1)O[C@H](C)c1cc(F)ccc1-n1nc(F)cc1C2 [Compound 71]
< 50	< 50	< 50	< 50	50 to 500	Cc1nc2c(s1)Cc1cnn(C(F)F)c1-c1cnc(N)c(c1)O[C@H](C)c1cc(F)ccc1-2 [Compound 72]
< 50	< 50	< 50	< 50	50 to 500	CCn1nc(Cl)c2c1-c1cnc(N)c(c1)O[C@H](C)c1cc(F)ccc1-c1nn(C)cc1C2 [Compound 73]
< 50	< 50	< 50	< 50	< 50	CCn1ncc2c1-c1cnc(N)c(c1)O[C@H](C)c1cc(F)ccc1-n1nc(Cl)cc1C2 [Compound 74]
< 50	< 50	< 50	< 50	50 to 500	CCn1ncc2c1-c1cnc(N)c(c1)OCc1cc(F)ccc1-n1nc(Cl)cc1C2 [Compound 75]

Ki (ALK-wt kinase domain) [nM]	Ki [1] [nM]	Ki (ROS1-wt kinase domain) [nM]	Ki [2] [nM]	Ki (TRKA-wt kinase domain) [nM]	SMILES
< 50	< 50	< 50	< 50	< 50	CCn1nc(Cl)c2c1-c1cnc(N)c(c1)O[C@H](C)c1cc(F)ccc1-n1nc(C)cc1C2 [Compound 76]
< 50	< 50	< 50	< 50	50 to 500	CCn1ncc2c1-c1cnc(N)c(c1)O[C@H](C)c1cc(F)ccc1-c1ncoc1C2 [Compound 77]
< 50	< 50	< 50	< 50	50 to 500	CCn1nnc2c1-c1cnc(N)c(c1)O[C@H](C)c1cc(F)ccc1-c1nc(C)sc1C2 [Compound 78]
< 50	< 50	< 50	< 50	> 500	Cc1nn(CC(F)F)c2c1Cc1cn(C)nc1-c1ccc(F)cc1[C@@H](C)Oc1cc-2cnc1N [Compound 79]
< 50	< 50	< 50	< 50	< 50	CCn1ncc2c1-c1cnc(N)c(c1)O[C@H](C)c1cc(F)ccc1-n1nc(Br)cc1C2 [Compound 80]
< 50	< 50	< 50	< 50	50 to 500	CCn1nc(C)c2c1-c1cnc(N)c(c1)O[C@H](C)c1cc(F)ccc1-c1nn(C)cc1C2 [Compound 81]
< 50	< 50	< 50	< 50	50 to 500	Cc1nc2c(s1)Cc1c(c(C#N)nn1C)-c1cnc(N)c(c1)O[C@H](C)c1cc(F)ccc1-2 [Compound 82]
< 50	< 50	< 50	< 50	> 500	C[C@H]1Oc2cc(cnc2N)-c2c(c(Cl)nn2CC(F)F)Cc2cn(C)nc2-c2ccc(F)cc21 [Compound 83]
< 50	< 50	< 50	< 50	> 500	C[C@H]1Oc2cc(cnc2N)-c2c(cnn2CC(F)F)Cc2cc(C(F)(F)F)nn2-c2ccc(F)cc21 [Compound 84]
< 50	< 50	< 50	< 50	> 500	C[C@H]1Oc2cc(cnc2N)-c2c(CC(F)F)noc2Cc2cn(C)nc2-c2ccc(F)cc21 [Compound 85]
< 50	50 to 500	< 50	< 50	> 500	CCn1ncc2c1-c1cnc(N)c(c1)O[C@H](C)c1cc(F)ccc1-c1nn(C(F)F)cc1C2 [Compound 86]
< 50	< 50	< 50	< 50	< 50	CCn1ncc2c1-c1cnc(N)c(c1)O[C@H](C)c1cc(F)ccc1-c1nn(C)c(C)c1C2 [Compound 87]
< 50	< 50	< 50	< 50	50 to 500	CCc1snc2c1-c1cnc(N)c(c1)O[C@H](C)c1cc(F)ccc1-c1nn(C)cc1C2 [Compound 88]
< 50	< 50	< 50	< 50	> 500	CCn1ncc2c1-c1cnc(N)c(c1)OCc1cc(F)ccc1-c1nc(C)sc1C2 [Compound 89]
< 50	< 50	< 50	< 50	50 to 500	CCc1noc2c1-c1cnc(N)c(c1)O[C@H](C)c1cc(F)cc(F)c1-c1nn(C)cc1C2 [Compound 90]
< 50	< 50	< 50	< 50	50 to 500	C[C@H]1Oc2cc(cnc2N)-c2c(cnn2CC2CC2)Cc2cc(C(F)(F)F)nn2-c2ccc(F)cc21 [Compound 91]
< 50	< 50	< 50	< 50	> 500	CCn1ncc2c1-c1cnc(N)c(c1)OCc1cc(F)ccc1-n1nc(C(F)(F)F)cc1C2 [Compound 92]
